PubChem BioAssay AID1996
In brackets after ≈: the same amount, converted by molar mass.

Conditions: buffer; pH 7.4; 200.0 µM

Row | SMILES | solubility kinetic [µg/mL]
1 | CC(C)C(NS(=O)(=O)c1cccc(C(F)(F)F)c1)C(=O)O (stereo unspecified) | > 48.8
2 | CCc1ccc(CNc2ccc3c(c2)ncn3CC)cc1 | 37.3 (≈ 134 µM)
3 | Cc1ccc2c(CN3CC(C)CC(C)C3)cc(=O)oc2c1 (stereo unspecified) | 4.3 (≈ 15.1 µM)
4 | CC(C)(C)C(=O)Cn1c(NCCCl)nc2ccccc21.Cl | > 49.5
5 | COCC(=O)N1CCCC(C(=O)c2ccc3c4c(cccc24)CC3)C1 (stereo unspecified) | 49.8 (≈ 148 µM)
6 | O=C1CN(C(=S)NC(=O)c2ccccc2[N+](=O)[O-])CCN1 | > 46.2
7 | O=C(O)/C=C\C(=O)NCc1cccnc1 | > 30.9
8 | O=C(O)c1cc(S(=O)(=O)NCCOc2ccccc2)ccc1Cl | > 53.4
9 | CC(C)CN1CCC(CN(C)Cc2nc(-c3cnccn3)no2)CC1 | 45.2 (≈ 131 µM)
10 | CCCC(=O)Nc1c(-c2cccc(C)c2)c(=O)c2ccccc2n1C | 13.1 (≈ 39.2 µM)
11 | O=C1CSC(c2ccccc2)N1c1ccc(F)cc1F (stereo unspecified) | 38 (≈ 130 µM)
12 | O=C1NCCCCC1NS(=O)(=O)c1cccc2ccccc12 (stereo unspecified) | > 47.8
13 | O=C(CNC(=O)c1ccco1)NCc1nc2ccccc2[nH]1 | > 44.7
14 | Cc1nc(C)n(CC(=O)c2ccc(Cl)cc2Cl)n1 | > 42.6
15 | CSc1nnc(C)c(=O)n1COC(=O)/C=C/c1ccccc1 | > 47.6
16 | CCc1ccccc1NC(=S)N(CCN(C)C)C(C)c1ccco1 (stereo unspecified) | 50.5 (≈ 146 µM)
17 | CC(C)CC1(C)NC(=O)N(CC(=O)Nc2ccc3c(c2)OCCO3)C1=O (stereo unspecified) | > 54.2
18 | c1ccc(-c2nc(-c3cccnc3)cs2)cc1 | 21.4 (≈ 89.8 µM)
19 | C=CCOn1c(=O)c(-c2ccc(C)cc2)[n+]([O-])c2ccccc21 | 5.7 (≈ 18.5 µM)
20 | CN(Cc1cccc(F)c1)C(=O)C1CC(=O)N(c2ccc3c(c2)OCCO3)C1 (stereo unspecified) | > 57.7
21 | O=C(NC(=S)NCc1ccco1)c1ccc([N+](=O)[O-])cc1 | 4.6 (≈ 15.1 µM)
22 | COC(=O)c1cnc(Nc2ccc(Cl)cc2)c([N+](=O)[O-])c1 | < 0.2

Row | SMILES | solubility kinetic [µg/mL]
23 | Nc1nc(-c2ccc(Oc3ccccc3)cc2)c(CC(=O)O)s1 | > 49
24 | CC(=O)N1c2ccccc2CCc2ccc([N+](=O)[O-])cc21 | > 42.3
25 | COc1cc(C(=O)N2CCN(c3ccccn3)CC2)cc(OC)c1OC | > 53.6
26 | O=c1[nH]c(-c2ccccc2)c(-c2ccccc2)o1 | 14.8 (≈ 62.4 µM)
27 | Cc1ccc(NC(=S)NCCc2c[nH]c3ccccc23)c(C)c1 | 20.4 (≈ 63.1 µM)
28 | CCOC(=O)CCNC(=O)CCNC(=O)C(c1ccccc1)c1ccccc1 | > 57.4
29 | CC(C)(C)c1csc(NC(=O)CS(=O)(=O)c2ccccc2)n1 | 50.6 (≈ 150 µM)
30 | CC(C)N1CCN(Cc2ccncc2)CC1CCO (stereo unspecified) | 24.3 (≈ 92.3 µM)
31 | COc1ccc(C(=O)O/N=C(/C(N)=O)P(=O)(OC(C)C)OC(C)C)cc1 | 49.1 (≈ 127 µM)
32 | NC(=O)CSc1nc(-c2ccccc2)nc2ccccc12 | 0.7 (≈ 2.37 µM)
33 | COc1cc(C(=O)Nc2ccncc2)c([N+](=O)[O-])cc1OC | > 45.5
34 | CC(=O)c1ccc(NC(=S)NCc2cccnc2)cc1 | > 42.8
35 | O=C(/C=C/c1ccccc1)NCCc1nc2ccccc2[nH]1 | 23.7 (≈ 81.3 µM)
36 | Cc1ccc(S(=O)(=O)NC2CC(C)(C)NC(C)(C)C2)c(C)c1C | 42.6 (≈ 126 µM)
37 | CCc1noc(C)c1C(=O)Nc1nc(-c2ccccc2)cs1 | 5 (≈ 16 µM)
38 | COc1ccc(OC)c(NC(=O)COC(=O)CCc2nc3ccccc3c(=O)[nH]2)c1 | > 61.7
39 | CC(=O)c1ccc(S(=O)(=O)N2CCN(C(C)=O)CC2)cc1 | > 46.6
40 | Cc1ccc2c3c([nH]c2c1)C(=O)CC(C)(C)S3 | < 0.5
41 | COc1cccc(Nc2nc(-c3cccnc3)cs2)c1 | 1.3 (≈ 4.59 µM)
42 | S=C(NCCc1ccccc1)Nc1c(Cl)cccc1Cl | 44.3 (≈ 136 µM)
43 | COc1ccc(CCNC(=O)NS(=O)(=O)c2ccc(C)cc2)cc1OC | > 56.8
44 | Oc1nc(-c2ccc(Cl)cc2)n2ccncc12 | > 36.9

Row | SMILES | solubility kinetic [µg/mL]
45 | O=C(O)CN1C(=O)S/C(=C\c2cccnc2)C1=O | > 39.6
46 | Cn1c(=O)c2cc3ccc(Cl)cc3nc2n(C)c1=O | 0.4 (≈ 1.45 µM)
47 | O=C(Nc1ccc2ccccc2c1)c1cccc(F)c1 | 1.3 (≈ 4.9 µM)
48 | CN(C)/C=C(\C#N)C(=O)Nc1ccc(F)c(Cl)c1 | 2 (≈ 7.47 µM)
49 | N#Cc1ccccc1COC(=O)c1cccnc1N | 10.5 (≈ 41.5 µM)
50 | CCS(=O)(=O)N1CCC(C(=O)Oc2ccc(C)c(C)c2)CC1 | 38.5 (≈ 118 µM)
51 | CCCn1c(=O)c(C(=O)NCc2ccco2)c(O)c2ccccc21 | < 0.3
52 | Cc1ccccc1C(=O)Nc1ccc(N2CCN(C)CC2)nc1 | > 46.6
53 | CC1CCCCC1NC(=O)COC(=O)c1ccc2ccccc2n1 (stereo unspecified) | 7.1 (≈ 21.8 µM)
54 | Cc1cc(C(=O)Nc2ccc(F)c(Cl)c2)on1 | 18.3 (≈ 71.9 µM)
55 | O=C(c1cc(Br)c[nH]1)N1CCSCC1 | 29.6 (≈ 108 µM)
56 | O=C1C2C3C=CC(C3)C2C(=O)N1c1cccc2ccccc12 (stereo unspecified) | 22.9 (≈ 79.1 µM)
57 | O=[N+]([O-])c1cnc2ccccn12 | 22.1 (≈ 135 µM)
58 | O=C(CSCc1ccccc1Cl)NCCSc1ccccn1 | 50.4 (≈ 143 µM)
59 | O=C(OCC(=O)N1CCOCC1)c1ccccc1O | 29.8 (≈ 112 µM)
60 | CCc1ccc2c(c1)C(O)(CC(=O)c1cccs1)C(=O)N2 (stereo unspecified) | > 45.2
61 | O=C(Nc1nc(-c2ccccc2)ns1)c1ccncc1 | 2.4 (≈ 8.5 µM)
62 | O=C(CCC(=O)c1cccs1)NC1CCCCCC1 | 25.6 (≈ 91.6 µM)
63 | CCOP(=O)(c1ccccc1)C1(C#N)CC1 (stereo unspecified) | 23 (≈ 97.8 µM)
64 | O=C1CN=C(c2ccccc2)c2cc([N+](=O)[O-])ccc2N1 | > 42.2
65 | CC1=C(C)C(O)N(Cc2ccccc2)C1=O (stereo unspecified) | > 32.6
66 | O=C1C=C(NC2CCCC2)CC(c2ccccc2)C1 (stereo unspecified) | > 38.3

Row | SMILES | solubility kinetic [µg/mL]
67 | COc1cc(NC(=S)Nc2cccnc2)cc(OC)c1 | < 0.2
68 | Cc1cc(CNC(=O)COc2ccc([N+](=O)[O-])cc2)c2ccccc2n1 | 2.3 (≈ 6.55 µM)
69 | CN(C)C(=O)C[n+]1ccc(C(N)=O)cc1.[Cl-] | 35.4
70 | O=C(/C=C1\SC(=O)NC1=O)Nc1ccc(C(=O)O)cc1 | > 43.8
71 | COc1ccccc1NC(=O)Cc1cccc2ccccc12 | 2.1 (≈ 7.21 µM)
72 | Cc1cccc(C2N=C(N)Nc3nc4ccccc4n32)c1 (stereo unspecified) | 34.3 (≈ 124 µM)
73 | O=C1c2cccc3c2N(CCC3)C(=O)C1(F)c1ccccc1 (stereo unspecified) | > 44.3
74 | C/C(CC(=O)NCCN1CCOCC1)=N\NC(=O)c1ccncc1 | > 50
75 | Cc1c(NC(=O)C(C)Oc2cccc(F)c2)c(=O)n(-c2ccccc2)n1C (stereo unspecified) | > 55.4
76 | O=C(Cc1cccs1)NCc1ccccc1Br | 24.8 (≈ 79.9 µM)
77 | CCc1sc(C(=O)N2CCN(C(=O)c3ccccc3)CC2)cc1C | > 51.4
78 | O=C(NCc1ccccc1)c1ccc(Cl)cc1 | 3.8 (≈ 15.5 µM)
79 | O=C(Nc1cccc(S(=O)(=O)N2CCCCC2)c1)C1CCCC1 | 41.2 (≈ 122 µM)
80 | CC(C)NC(=O)NC(=O)COC(=O)C1(C)CC1(Cl)Cl (stereo unspecified) | > 46.7
81 | O=C(OCc1cccc([N+](=O)[O-])c1)c1ccc[nH]c1=O | > 41.1
82 | O=C(/C=C/c1cccc([N+](=O)[O-])c1)c1ccco1 | 1.7 (≈ 6.99 µM)
83 | CC(=O)c1cccc(S(=O)(=O)Nc2c(C)nn(C)c2C)c1 | > 46.1
84 | Nc1ccc(NC(=O)CCN2CCOCC2)cc1 | 34.8 (≈ 140 µM)
85 | Cc1cccc(-n2c(O)c(C=NCCN3CCNCC3)c(=O)[nH]c2=S)c1 | 51.2 (≈ 137 µM)
86 | O=S(=O)(Nc1c(F)cccc1F)c1ccc2c(c1)OCCO2 | 2.5 (≈ 7.64 µM)
